Data on three substances can be found in paper PMC6838142, “Nano-Antagonist Alleviates Inflammation and Allows for MRI of Atherosclerosis” (Nanotheranostics, 2019).

Data set [1] has as its system BMDMs from CCR2-knockout mice. Description: Actin polymerization in BMDMs from CCR2-knockout mice. In kind it is cell-based, mouse. As for the experimental part:
BMDMs were seeded and cultured on #1 glass coverslips in the presence or absence of 10 μM CCTV or VTCC for 6 h. Next, cells were washed with PBS and recombinant mouse CCL2 was added to a final concentration of 500 nM. Then, cells were incubated for varying times (indicated in Figure 2G), after which they were immediately placed on ice and washed 3 times with cold PBS. Actin polymerization was then visualized following staining with phalloidin Alexa Fluor 633, according to the manufacturer's instructions.

A further data set relates to RAW cells. Description: Flow cytometry competition with excess free peptide. Particulars: excess (1 mM) free peptide. In kind it is cell-based, mouse. An excerpt:
Figure 1 Screening identifies CCTV as an anti-inflammatory nanoparticle with high affinity for CC chemokine receptor 2. A) A screening of a small library of nanoparticles in lipopolysaccharide (LPS)-stimulated macrophage reporter cells (RAW-Blue) identified CCTV, which downregulates nuclear factor-kappa B (NF-κB) activity. Each point on the plot represents a relative activity of NF-κB (X-coordinate) and corresponding nanoparticle content per mg of cell protein (Y-coordinate) calculated from nanoparticle fluorescence. […] Dexamethasone (Dex) is an NF-κB inhibitor and was used as a positive control. Vehicle-treated and unstained (US) cells served as a negative control. B) CCTV binding to the cell surface was validated in RAW cells using fluorescence microscopy. The cells were stained at 4 °C or room temperature for 30 min with CCTV or vehicle nanoparticles (sudo-colored green). […] E) The Basic Local Alignment Search Tool (BLAST) analysis determined that CCTV peptide sequence repeats in mouse and human CC chemokine receptor family. […]
For a targeted nanotherapy to be effective, the nanoparticles must have affinity to a specific cell type, usually determined by cell surface binding. […] Thus, we used the mouse macrophage reporter cell line RAW-Blue that allowed for monitoring activity of Nuclear Factor-kappa B (NF-kB) and also enabled In vitro quantitation of nanoparticle binding to the cell surface. […]
A general note: Flow cytometry measures light scatter and fluorescence of single cells or particles in a stream.

The next data set relates to recombinant CCR2 protein. Description: Competition with CCL2 binding to immobilized CCR2. Particulars: free peptide 1 mM in dimethylformamide, 1 h room temperature, recombinant human CCL2; OD 450 nm; three independent experiments. As for the experimental part: A sandwich-type plate-based immunoassay was developed in-house to study CCR2 receptor binding. Black opaque plates (for fluorescence studies) or clear high protein binding plates (for absorbance studies) were coated with recombinant CCR2 protein at 2 µg/mL in PBS overnight at 4 °C. Plates were washed 5 times with PBS and treated as follows: for nanoparticles binding, varying concentrations of fluorescent nanoparticles or vehicle control (see above) in PBS were added to the opaque plates and incubated for 4 h at room temperature. For peptide competition/binding studies, recombinant human CCL2 was added in clear plates at varying concentrations in PBS simultaneously with a large excess of peptides (1 mM final concentration, dissolved in dimethylformamide) and incubated for 1 h at room temperature. All plates were washed 5 times with PBS and fluorescence in opaque plates was read at 550 nm excitation and 620 nm emissions. […] Clear plates were washed and incubated with 0.1 µg/mL streptavidin-HRP. Finally, clear plates were washed and incubated with SigmaFast OPD reagent in the presence of hydrogen peroxide-urea, as per the manufacturer's instructions. After 30 min incubation period at 37 °C, the plates were read at 450 nm on a multiwell plate reader as described above. Fluorescence emission values and OD at 450 nm were plotted against concentration using a 4-parametric fit.

A short description of data set [2]: Dynamic light scattering of nanoparticles. In kind it is physicochemical. The following applies: Malvern Zetasizer Nano S, listed as C3. As for the experimental part:
Lipid-peptide conjugates were synthesized from either DSPE-PEG-CO2H or DSPE-PEG-MAL using peptides derived using SVM prediction platform and listed in Supplementary Table S2. The peptides were conjugated to either the N-terminus or via sulfhydryl groups as depicted in Figure 1E. Lipid films from both PEGylated derivatives were prepared by evaporation under nitrogen gas, from 1 µM of lipid solution in chloroform. Tetrapeptides were custom-synthesized by Genscript. 5 µmol of peptide solutions in water:dimethylformamide (1:1) were prepared via a brief bath sonication. […] PEGylated lipids prepared above were sonicated (10 min, 300 W, room temperature) in 5 mL of MES (pH 6, 100 mM) for DSPE-PEG-CO2H and in 5 mL of HEPES buffered saline [HBS] (pH 7.2, 100 mM, 154 mM NaCl) for DSPE-PEG-MAL. Next, DSPE-PEG-CO2H was activated by the addition of 2 mg of EDC (20 mg/mL in water) and 5 mg of sulfo-NHS (10 mg/mL in water). This was sonicated at 15 W for 10 min in a temperature controlled bath at 30 °C. Then, peptide solutions/suspensions were added to the resulting DSPE-PEG-NHS or previously prepared DSPE-PEG-MAL and stirred at room temperature for 4 h. The reaction with DSPE-PEG-NHS was quenched by the addition of 100 µL of 0.5 M of NH2OH in HBS, plus 1 mM EDTA. The reaction with DSPE-PEG-MAL was quenched by the addition of 7 µL of 2-mercaptoethanol. The solution was freezed at -80 °C and lyophilized. Next, lipid-peptide conjugates were extracted with chloroform (3 x 2 mL) and centrifuged at 4000 g x 5 min. Combined extract supernatants were evaporated under N2 gas and sonicated (10 min, 100 W) in 0.5-1 mL of water at room temperature. This raw product was purified by size […] chromatography as follows. Millipore Vantage column (10 x 500 mm) was packed with Sepharose 4B in deionized water under flow rate of 0.5 mL/min. Next, 0.5 mL of raw nanoparticle preparation was injected into the column and 0.5 mL fractions were collected at 0.5 mL/min simultaneously with UV detection at 190, 214, 250 and 280 nm using the Bio Rad DuoFlow system equipped with BioLogic QuadTec UV/Vis detector. See Supplementary Figure S2 for representative chromatograms. Combined fractions 15-31 were frozen and lyophilized. Particles used in signalling In vitro work were prepared by reconstitution of lyophilizates in PBS or HBS buffer via sonication. Particles used in reporter, flow cytometry and microscopy experiments were prepared by addition of 1% (by weight) of Rhodamine-PE in ethanol followed by reconstitution as described above. Particles used in magnetic resonance imaging (MRI) and time-resolved fluorescence (TRF) assays were prepared by addition of 10-20% (by weight) of gadolinium or europium chelate-lipids followed by reconstitution as above. Gadolinium-DTPA (18:0 PE-DTPA) was obtained from Avanti Polar Lipids and europium cryptate-NHS was obtained from Aat Bioquest (Supplementary Table S1). Europium cryptate-NHS was further conjugated to phosphatidylethanolamine (PE) to obtain Eu-cryptate-PE according to published and well established protocols. To confirm peptide conjugation, the powder was reconstituted in 1 mL of chloroform and analyzed with TLC (eluent chloroform:methanol:water 65:25:4) detecting with Molybdenum blue (Supplementary Figure S3A) or Dragendorff reagent (Supplementary Figure S3B). Nanoparticles were characterized by dynamic light scattering using Malvern Zetasizer Nano S (Supplementary Table S3). The presence of the peptide bond (N-H) and aliphatic C-H and C-C stretches (lipids) was confirmed by infrared (IR) spectroscopy. Nanoparticles were isolated as a homogeneous population (peak) in gel-filtration (see above) and were used without additional purification.

Data set [3] concerns bone marrow derived monocytes, CCL2-induced migration. Kind of data set: CCL2-induced chemotaxis assay. In kind it is cell-based, mouse. The following applies: pre-treated BMDMs; 100 nM recombinant mouse CCL2, 12 h; nanoparticles. As for the experimental part:
Chemotaxis assays were performed using IBIDI µ-Slides as per the manufacturer's instructions and the recently published guide detailing the protocol. […] Cells were allowed to attach for 3 h at 37 °C, washed with 0.2 mL warm cell culture medium using a pipette tip inserted into µ-channel port, following which 100 nM recombinant mouse CCL2 protein was added as a chemoattractant (or omitted in control slides) to the one of side reservoirs. Cell movement was recorded for a duration of 12 h via phase video-microscopy in a stage-top humidified incubator at 37 °C and 5% CO2 atmosphere. Analysis was performed using the ImageJ IBIDI tracking tool, available free of charge at https://ibidi.com.

For data set [4], the system named is F4/80-positive plaque macrophages. Description: Immunohistochemistry / plaque macrophage co-staining. In kind it is in vivo, mouse. Particulars: rhodamine signal, 24 h after injection. As for the experimental part:
Twenty-four hours after nanoparticle injection (see above), mice were euthanized and abdominal aortas were isolated and embedded in Optimal Cutting Temperature compound. After cryotome-sectioning, resulting in 20-30 slides per mouse, 15 slides were sent to Ohio State laser capture microdissection core lab for capture and analysis. The rest of the slides were processed as follows: after fixation in methanol:acetone 50:50 at -20 °C, slides were hydrated in PBS, blocked for 30 min in fish serum (Aqua Block) and stained for 1 h with primary antibodies against F4/80 followed washing and staining with HRP-conjugated secondary antibody for 30 min. DAB peroxidase kit was then used as per manufacturer's instructions followed by mounting. DAB and antibody staining (but not wash steps) was omitted in slides designated for nanoparticle fluorescence visualization. Nanoparticles fluorescence was visualized with Zeiss 510 LSM-meta confocal microscope and 20x objective. DAB F4/80 staining was visualized with Nikon FN1 microscope and same power objective.

For the substance “CCL2: recombinant mouse CCL2/MCP-1 protein, natural CCR2 ligand”, the “actin polymerization in CCR2-knockout BMDMs” value in data set [1] is recorded as “neither nanoparticles nor CCL2 are able to induce polymerization”.

Consider “CCTV [free CCTV peptide, free (unconjugated) CCTV tetrapeptide]”, for which the “reduction of CCTV nanoparticle staining by free peptide” value in the data set with RAW cells is recorded as “did not show appreciable reduction in CCTV staining in RAW cells”. The “competition with CCL2 binding to CCR2” value in the data set with recombinant CCR2 protein is given as “insignificantly competed with receptor binding of natural CCR2 ligand”.

Take VTCC: the “Mean Polydispersity Index (PDI)” value in data set [2] is 0.148. The “Size (Mean Z average)” value in data set [2] (hydrodynamic diameter) was 167 nm. Besides, in data set [3], the CCL2-induced monocyte migration entry was “not seen with VTCC”. The “co-staining with F4/80 in plaque” value in data set [4] is “not VTCC rhodamine signal”.
